Laboratory results published in US9609868B2, “Alkoximino-substituted anthranilic acid diamides as pesticides” (BAYER CROPSCIENCE AKTIENGESELLSCHAFT, priority 2013, dated 2017).

Legend:
[1] = log P by HPLC on reversed-phase column (C18), EEC directive 79/831 Annex V.A8; format: physicochemical; conditions: HPLC reversed-phase C18, 43° C., data refer to the E isomer
Description: The log P values reported in the tables and Preparation Examples above were determined in accordance with EEC directive 79/831 Annex V.A8 by HPLC (High Performance Liquid Chromatography) using a reversed-phase column (C18). Temperature 43° C. The calibration is effected with unbranched alkan-2-ones (having 3 to 16 carbon atoms), for which the log P values are known.

Tetranychus urticae = Tetranychus urticae - spray test, OP-resistant (TETRUR); format: in vivo; conditions: application rate 100 g/ha, bean leaf disks
Description: Tetranychus urticae—Spray Test, OP-Resistant (TETRUR)
Solvent: 78.0 parts by weight of acetone • • 1.5 parts by weight of dimethylformamide
Emulsifier: 0.5 parts by weight of alkylaryl polyglycol ether
To produce a suitable active compound preparation, 1 part by weight of active compound is mixed with the stated amounts of solvent and emulsifier, and the concentrate is diluted with emulsifier-containing water to the desired concentration.
Disks of bean leaves (Phaseolus vulgaris) infested with all stages of the greenhouse red spider mite (Tetranychus urticae) are sprayed with an active compound preparation of the desired concentration.
After the desired period of time, the efficacy in % is determined. 100% means that all the spider mites have been killed; 0% means that none of the spider mites have been killed.

Myzus persicae = Myzus persicae - spray test (MYZUPE); format: in vivo; conditions: application rate 100 g/ha, Chinese cabbage leaf disks
Summary of the method: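 Chinese cabbage leaf disks carrying all stages of green peach aphid were sprayed with compound in acetone/DMF with emulsifier, diluted in water. After the chosen period, efficacy was scored as % aphids killed.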

Boophilus microplus = Boophilus microplus - injection test (BOOPMI Inj); format: in vivo; conditions: application rate 20 μg/animal, injection into engorged adult female cattle ticks
Description: Boophilus microplus—Injection Test (BOOPMI Inj)
(§1) Solvent: dimethyl sulfoxide
To produce a suitable preparation of active compound, 10 mg of active compound are mixed with 0.5 ml of solvent and the concentrate is diluted with solvent to the desired concentration.
1 μl of the active compound solution is injected into the abdomen of 5 engorged adult female cattle ticks (Boophilus microplus). The animals are transferred into dishes and kept in a climate-controlled room.
The activity is assessed after the desired time by laying of fertile eggs. Eggs which are not visibly fertile are stored in a climate-controlled cabinet until the larvae hatch after about 42 days. An efficacy of 100% means that none of the ticks has laid any fertile eggs; 0% means that all the eggs are fertile.

Musca domestica = Musca domestica test (MUSCDO); format: in vivo
Description: Musca domestica-Test (MUSCDO)
as §1
(§2) To produce a suitable preparation of active compound, 10 mg of active compound are mixed with 0.5 ml of dimethyl sulfoxide, and the concentrate is diluted with water to the desired concentration.
Vessels containing a sponge treated with sugar solution and the active compound preparation of the desired concentration are populated with 10 adult houseflies (Musca domestica).
After the desired time, the kill in % is determined. 100% means that all of the flies have been killed; 0% means that none of the flies have been killed.

Phaedon cochleariae = Phaedon cochleariae - spray test (PHAECO); format: in vivo; conditions: application rate 100 g/ha, Chinese cabbage leaf disks
Summary of the method: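 Active compound in acetone/dimethylformamide with alkylaryl polyglycol ether emulsifier was diluted with emulsifier-containing water to the test concentration and sprayed. After the set period, efficacy was scored as % larvae killed (100% = all beetle larvae dead, 0% = none).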

Lucilia cuprina = Lucilia cuprina test (LUCICU); format: in vivo; conditions: application rate 100 ppm
Description: Lucilia cuprina-Test (LUCICU)
as §1, §2
About 20 L1 larvae of the Australian sheep blowfly (Lucilia cuprina) are transferred into a test vessel containing minced horsemeat and the active compound preparation of the desired concentration.
After the desired time, the kill in % is determined. 100% means that all the larvae have been killed; 0% means that no larvae have been killed.

Spodoptera frugiperda = Spodoptera frugiperda - spray test (SPODFR); format: in vivo; conditions: application rate 100 g/ha, maize leaf disks
Summary of the method: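 Maize leaf disks sprayed with compound in acetone/DMF with alkylaryl polyglycol ether emulsifier, diluted in water to test concentration, then infested with armyworm caterpillars once dry. Efficacy given as % caterpillars killed (100% all, 0% none) after the chosen period.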

SMILES | log p ([1]; Table A) | efficacy (spider mites killed) (Tetranychus urticae) | efficacy (aphids killed) (Myzus persicae) | efficacy (no fertile eggs laid) (Boophilus microplus) | efficacy (kill of adult houseflies) (Musca domestica; application rate 20 ppm) | efficacy (beetle larvae killed) (Phaedon cochleariae) | efficacy (kill of L1 larvae) (Lucilia cuprina) | efficacy (caterpillars killed) (Spodoptera frugiperda) | log p ([1]; Table C) | efficacy (kill of adult houseflies) (Musca domestica; application rate 100 ppm)
CCOC(=O)NNC(=O)c1cc(C=NOC)cc(C)c1NC(=O)c1cc(C(F)(F)F)nn1-c1ncccc1Cl [A-17] | 2.92 | 90% | 90% | 100% | 80% | 100% | 100% | 100% |  | 
C#CCOC(=O)NNC(=O)c1cc(C=NOC)cc(C)c1NC(=O)c1cc(C(F)(F)F)nn1-c1ncccc1Cl [A-22] | 2.86 | 100% | 100% | 100% | 100% | 100% | 100% | 100% |  | 
CON=Cc1cc(C)c(NC(=O)c2cc(CF)nn2-c2ncccc2Cl)c(C(=O)NC2CC2)c1 [C-42] |  | 100% | 90% | 100% |  | 100% | 100% | 100% | 2.38 | 90%
CON=Cc1cc(C)c(NC(=O)c2cc(C(F)F)nn2-c2ncccc2Cl)c(C(=O)NN(C)C(=O)OC)c1 (mixture of isomers) [A-41] | 2.46 |  | 90% | 100% |  | 100% | 100% | 100% |  | 80%
CON=Cc1cc(C)c(NC(=O)c2cc(OC)nn2-c2ncccc2Cl)c(C(=O)NC(C)C)c1 [C-24] |  |  | 100% | 100% |  | 100% | 100% | 100% | 2.65 | 100%
